Results taken from PMC4466525, “Design, Synthesis and Structure-Activity Relationship Studies of Novel Survivin Inhibitors with Potent Anti-Proliferative Properties” (PLoS ONE, 2015).

Tested on: human melanoma A375 xenograft
Assay: In vivo anti-tumor efficacy, A375 xenograft
Parameters: species or system nude mouse
From the text: 3 × 10^6 A375 cells were implanted into the left-side dorsal flank of each nude mouse (n = 5) to establish the human melanoma A375 tumor xenograft model as described previously. Compound 4g were first dissolved in DMSO then diluted by 2% methylcellulose PBS buffer. The proportion of DMSO in final solution was kept at lower than 5%. Mice body weight and the size of tumor were closely monitored during the 3 week continuous treatment (i.p. injection, one dose per day, five days per week). At the end point of the treatment, mice were sacrificed after anesthesia. A375 tumor tissues were isolated then freshly lysed on ice to check the targeted protein levels through Western blotting.
A375 tumor tissues collected from the in vivo efficacy study in the above were fixed in formalin phosphate buffer for one week. Then the tissues were processed to get paraffin embedded sections. TUNEL assay was performed using DeadEnd Fluorometric kit (Promega Corporation, Madison, WI) following manufacturer’s instructions. By the end of the experiment, VECTASHIELD Hard Set mounting medium with DAPI (Vector Lab, Inc., Burlingame, CA) was used to mount the tumor slides and stain the nuclei. The final slides were analyzed immediately under a fluorescence microscope (EVOS FL Cell Imaging System, Thermo Fisher Scientific Inc., NY).

SMILES: CC(C)c1ccc(COCc2cc(CN3CCCC3)c(O)c3ncccc23)cc1 [4g, 5-(((4-isopropylbenzyl)oxy)methyl)-7-(pyrrolidin-1-ylmethyl)quinolin-8-ol]
- Tumor growth slower than vehicle control group, 20 mg/kg (20 mg/kg i.p., three weeks, A375 xenograft): 53%
- Tumor growth slower than vehicle control group, 40 mg/kg (40 mg/kg i.p., three weeks, A375 xenograft): 79%
- TUNEL assay of tumor tissues (40 mg/kg, formalin-fixed tumor sections): widely-spread cell apoptosis
- Expression levels of survivin and XIAP protein in tumor tissues (Western blotting of A375 xenograft tumor tissues from treated groups): decreased
- Mice body weight (three weeks i.p. treatment): without causing obvious decrease of mice body weight
